Test results: PubChem BioAssay (NCI)
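Interpolation was linear, between the two tested concentrations surrounding the appropriate level; five concentrations were tested over 48 hours in 96-well plates. Definition used: TGI = concentration required for complete inhibition of growth.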

Assays:
Assay in all cases: DTP human tumour cell line panel, 48 h
NCI-H460 lung = system: NCI-H460 lung
SN12C renal = system: SN12C renal
PC-3 prostate = system: PC-3 prostate
NCI/ADR-RES ovarian = system: NCI/ADR-RES ovarian
IGROV1 ovarian = system: IGROV1 ovarian
U251 CNS = system: U251 CNS
RXF 393 renal = system: RXF 393 renal
OVCAR-3 ovarian = system: OVCAR-3 ovarian
SK-MEL-5 melanoma = system: SK-MEL-5 melanoma
CCRF-CEM leukemia = system: CCRF-CEM leukemia
NCI-H226 lung = system: NCI-H226 lung
NCI-H522 lung = system: NCI-H522 lung
SK-OV-3 ovarian = system: SK-OV-3 ovarian
MDA-MB-435 = system: MDA-MB-435
SNB-75 CNS = system: SNB-75 CNS
OVCAR-5 ovarian = system: OVCAR-5 ovarian
RPMI-8226 leukemia = system: RPMI-8226 leukemia
HCT-116 colon = system: HCT-116 colon
OVCAR-8 ovarian = system: OVCAR-8 ovarian
SNB-19 CNS = system: SNB-19 CNS
BT-549 breast = system: BT-549 breast
OVCAR-4 ovarian = system: OVCAR-4 ovarian
MALME-3M melanoma = system: MALME-3M melanoma
SK-MEL-2 melanoma = system: SK-MEL-2 melanoma
MDA-MB-231 breast = system: MDA-MB-231 breast
MCF7 breast = system: MCF7 breast
NCI-H23 lung = system: NCI-H23 lung
K-562 leukemia = system: K-562 leukemia
HOP-92 NSCLC = system: HOP-92 NSCLC
M14 melanoma = system: M14 melanoma
COLO 205 colon = system: COLO 205 colon
HCT-15 colon = system: HCT-15 colon
T-47D breast = system: T-47D breast
DU-145 prostate = system: DU-145 prostate
HL-60(TB) leukemia = system: HL-60(TB) leukemia
HOP-62 NSCLC = system: HOP-62 NSCLC
SR leukemia = system: SR leukemia
HT29 colon = system: HT29 colon
UACC-62 melanoma = system: UACC-62 melanoma
MOLT-4 leukemia = system: MOLT-4 leukemia
UO-31 renal = system: UO-31 renal
HS 578T breast = system: HS 578T breast
SK-MEL-28 melanoma = system: SK-MEL-28 melanoma
CAKI-1 renal = system: CAKI-1 renal
KM12 colon = system: KM12 colon
A498 renal = system: A498 renal
LOX IMVI melanoma = system: LOX IMVI melanoma
TK-10 renal = system: TK-10 renal
SF-295 CNS = system: SF-295 CNS
SW-620 colon = system: SW-620 colon
A549 NSCLC = system: A549 NSCLC
786-0 renal = system: 786-0 renal
EKVX NSCLC = system: EKVX NSCLC
HCC-2998 colon = system: HCC-2998 colon
SF-539 CNS = system: SF-539 CNS
ACHN renal = system: ACHN renal
UACC-257 melanoma = system: UACC-257 melanoma
SF-268 CNS = system: SF-268 CNS

Q: `C[C@H]1S[C@@H](c2ccc(Cl)cc2Cl)N(NC(=O)c2ccncc2)C1=O` was tested. Which TGI (NCI-H460 lung) did it give?
A: > 100 µM

Q: And the TGI (SN12C renal)?
A: > 100 µM

Q: What about the TGI (PC-3 prostate) of the same compound?
A: > 100 µM

Q: And the TGI (NCI/ADR-RES ovarian)?
A: > 100 µM

Q: And the TGI (IGROV1 ovarian)?
A: > 100 µM

Q: What about the TGI (U251 CNS) of the same compound?
A: > 100 µM

Q: What about the TGI (RXF 393 renal) of the same compound?
A: > 100 µM

Q: What about the TGI (OVCAR-3 ovarian) of the same compound?
A: > 100 µM

Q: What about the TGI (SK-MEL-5 melanoma) of the same compound?
A: > 100 µM

Q: And the TGI (CCRF-CEM leukemia)?
A: > 100 µM

Q: What about the TGI (NCI-H226 lung) of the same compound?
A: > 100 µM

Q: What about the TGI (NCI-H522 lung) of the same compound?
A: > 100 µM

Q: What about the TGI (SK-OV-3 ovarian) of the same compound?
A: > 100 µM

Q: And the TGI (MDA-MB-435)?
A: > 100 µM

Q: And the TGI (SNB-75 CNS)?
A: > 100 µM

Q: And the TGI (OVCAR-5 ovarian)?
A: > 100 µM

Q: And the TGI (RPMI-8226 leukemia)?
A: > 100 µM

Q: What about the TGI (HCT-116 colon) of the same compound?
A: > 100 µM

Q: And the TGI (OVCAR-8 ovarian)?
A: > 100 µM

Q: What about the TGI (SNB-19 CNS) of the same compound?
A: > 100 µM

Q: And the TGI (BT-549 breast)?
A: > 100 µM

Q: And the TGI (OVCAR-4 ovarian)?
A: > 100 µM

Q: What about the TGI (MALME-3M melanoma) of the same compound?
A: > 100 µM

Q: What about the TGI (SK-MEL-2 melanoma) of the same compound?
A: > 100 µM

Q: What about the TGI (MDA-MB-231 breast) of the same compound?
A: > 100 µM

Q: And the TGI (MCF7 breast)?
A: > 100 µM

Q: And the TGI (NCI-H23 lung)?
A: > 100 µM

Q: And the TGI (K-562 leukemia)?
A: > 100 µM

Q: And the TGI (HOP-92 NSCLC)?
A: > 100 µM

Q: What about the TGI (M14 melanoma) of the same compound?
A: > 100 µM

Q: What about the TGI (COLO 205 colon) of the same compound?
A: > 100 µM

Q: What about the TGI (HCT-15 colon) of the same compound?
A: > 100 µM

Q: What about the TGI (T-47D breast) of the same compound?
A: > 100 µM

Q: What about the TGI (DU-145 prostate) of the same compound?
A: > 100 µM

Q: What about the TGI (HL-60(TB) leukemia) of the same compound?
A: > 100 µM

Q: And the TGI (HOP-62 NSCLC)?
A: > 100 µM

Q: What about the TGI (SR leukemia) of the same compound?
A: > 100 µM

Q: What about the TGI (HT29 colon) of the same compound?
A: > 100 µM

Q: And the TGI (UACC-62 melanoma)?
A: > 100 µM

Q: And the TGI (MOLT-4 leukemia)?
A: > 100 µM

Q: And the TGI (UO-31 renal)?
A: > 100 µM

Q: And the TGI (HS 578T breast)?
A: > 100 µM

Q: What about the TGI (SK-MEL-28 melanoma) of the same compound?
A: > 100 µM

Q: And the TGI (CAKI-1 renal)?
A: > 100 µM

Q: What about the TGI (KM12 colon) of the same compound?
A: > 100 µM

Q: And the TGI (A498 renal)?
A: > 100 µM

Q: Which TGI (NCI-H460 lung) does the source give for `C=C1C(=O)O[C@@H]2/C=C(/C)[C@@H](OC(C)=O)C/C=C(\C)C(O)[C@@H](OC(=O)/C(C)=C\C)C12` (some centres not stated) here?
A: > 100 µM

Q: And the TGI (LOX IMVI melanoma)?
A: 27.7 µM

Q: And the TGI (SN12C renal)?
A: 43.1 µM

Q: And the TGI (PC-3 prostate)?
A: > 100 µM

Q: What about the TGI (NCI/ADR-RES ovarian) of the same compound?
A: 76.5 µM

Q: And the TGI (IGROV1 ovarian)?
A: > 100 µM

Q: What about the TGI (U251 CNS) of the same compound?
A: > 100 µM

Q: What about the TGI (RXF 393 renal) of the same compound?
A: 79.4 µM

Q: And the TGI (OVCAR-3 ovarian)?
A: > 100 µM

Q: And the TGI (SK-MEL-5 melanoma)?
A: 32.1 µM

Q: And the TGI (CCRF-CEM leukemia)?
A: 57.2 µM

Q: And the TGI (NCI-H226 lung)?
A: > 100 µM

Q: And the TGI (NCI-H522 lung)?
A: 32.3 µM

Q: What about the TGI (SK-OV-3 ovarian) of the same compound?
A: > 100 µM

Q: And the TGI (TK-10 renal)?
A: > 100 µM

Q: And the TGI (MDA-MB-435)?
A: 57.5 µM

Q: What about the TGI (SNB-75 CNS) of the same compound?
A: > 100 µM

Q: What about the TGI (SF-295 CNS) of the same compound?
A: > 100 µM

Q: What about the TGI (OVCAR-5 ovarian) of the same compound?
A: > 100 µM

Q: What about the TGI (RPMI-8226 leukemia) of the same compound?
A: 60.7 µM

Q: And the TGI (HCT-116 colon)?
A: 29.8 µM

Q: What about the TGI (SW-620 colon) of the same compound?
A: 30.1 µM

Q: What about the TGI (OVCAR-8 ovarian) of the same compound?
A: 75.3 µM

Q: What about the TGI (SNB-19 CNS) of the same compound?
A: > 100 µM

Q: And the TGI (BT-549 breast)?
A: 44.3 µM

Q: What about the TGI (A549 NSCLC) of the same compound?
A: > 100 µM

Q: And the TGI (OVCAR-4 ovarian)?
A: > 100 µM

Q: What about the TGI (786-0 renal) of the same compound?
A: 29.7 µM

Q: What about the TGI (SK-MEL-2 melanoma) of the same compound?
A: 76.8 µM

Q: What about the TGI (MDA-MB-231 breast) of the same compound?
A: 39.2 µM

Q: And the TGI (EKVX NSCLC)?
A: > 100 µM

Q: And the TGI (MCF7 breast)?
A: > 100 µM

Q: What about the TGI (NCI-H23 lung) of the same compound?
A: > 100 µM

Q: What about the TGI (K-562 leukemia) of the same compound?
A: 73.3 µM

Q: And the TGI (HOP-92 NSCLC)?
A: 50.3 µM

Q: And the TGI (HCC-2998 colon)?
A: 55.4 µM

Q: And the TGI (M14 melanoma)?
A: > 100 µM

Q: What about the TGI (COLO 205 colon) of the same compound?
A: 32 µM

Q: And the TGI (HCT-15 colon)?
A: 30.3 µM

Q: And the TGI (T-47D breast)?
A: 39.7 µM

Q: What about the TGI (SF-539 CNS) of the same compound?
A: > 100 µM

Q: What about the TGI (DU-145 prostate) of the same compound?
A: > 100 µM

Q: And the TGI (ACHN renal)?
A: 40.8 µM

Q: What about the TGI (HL-60(TB) leukemia) of the same compound?
A: 49.6 µM

Q: And the TGI (HOP-62 NSCLC)?
A: > 100 µM

Q: And the TGI (SR leukemia)?
A: 55.6 µM

Q: And the TGI (HT29 colon)?
A: 40.1 µM

Q: What about the TGI (UACC-62 melanoma) of the same compound?
A: 88.4 µM

Q: What about the TGI (MOLT-4 leukemia) of the same compound?
A: 74.6 µM

Q: And the TGI (UACC-257 melanoma)?
A: > 100 µM

Q: What about the TGI (HS 578T breast) of the same compound?
A: > 100 µM

Q: And the TGI (SK-MEL-28 melanoma)?
A: 32.1 µM

Q: And the TGI (SF-268 CNS)?
A: > 100 µM

Q: And the TGI (CAKI-1 renal)?
A: 54.4 µM

Q: What about the TGI (KM12 colon) of the same compound?
A: > 100 µM

Q: And the TGI (A498 renal)?
A: > 100 µM
